# Data published in US11273166B2, “Methods and compositions for the treatment of obesity” (Monash University, priority 2017, dated 2022).
# Tests used:
# [1] = target: T1, TCPTP in the arcuate nucleus of the hypothalamus (Mus musculus, UniProt Q06180); assay: Celastrol i.p. for 10 days in high fat fed Ptpn2fl/fl mice, rAAV-Cre-eGFP vs rAAV-eGFP in ARC; assay type: in vivo; details: mice lacking TCPTP in the ARC; 20 ug/ml i.p., 10 consecutive days
# T1 construct: endogenous in cells; host or cells: arcuate nucleus of the hypothalamus of living high fat fed Ptpn2fl/fl mice
# T1 sequence (Q06180 1-406): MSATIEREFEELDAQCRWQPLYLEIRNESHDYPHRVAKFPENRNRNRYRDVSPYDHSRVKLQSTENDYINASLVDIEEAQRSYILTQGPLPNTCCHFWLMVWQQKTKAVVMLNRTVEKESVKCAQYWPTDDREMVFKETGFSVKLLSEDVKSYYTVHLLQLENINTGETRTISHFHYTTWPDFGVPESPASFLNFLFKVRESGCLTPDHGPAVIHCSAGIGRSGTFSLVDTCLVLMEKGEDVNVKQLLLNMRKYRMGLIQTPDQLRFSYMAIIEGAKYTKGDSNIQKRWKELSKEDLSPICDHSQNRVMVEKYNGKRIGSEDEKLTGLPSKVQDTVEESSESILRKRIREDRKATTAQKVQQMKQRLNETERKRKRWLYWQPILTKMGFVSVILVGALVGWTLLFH
# Protocol: (§1) 12-week high fat fed Ptpn2^fl/fl male mice were bilateral injected with rAAV-eGFP or rAAV-Cre-eGFP into the arcuate nucleus of the hypothalamus (ARC). Two-week post AAV administration mice received Celastrol (20 ug/ml, i.p.) for 10 consecutive days and effects on a-b) Body weights, b-c) food intake, e-f) adiposity and lean mass (EchoMRI) was determined.
# [2] = target: T2, PTP1B in the arcuate nucleus of the hypothalamus (Mus musculus, UniProt P35821); assay: Celastrol i.p. for 10 days in high fat fed Ptpn1fl/fl mice, rAAV-Cre-eGFP vs rAAV-eGFP in ARC; assay type: in vivo; details: mice lacking PTP1B in the ARC; 20 μg/ml i.p., 10 consecutive days
# T2 construct: endogenous in cells; host or cells: arcuate nucleus of the hypothalamus of living high fat fed Ptpn1fl/fl mice
# T2 sequence (P35821 1-432): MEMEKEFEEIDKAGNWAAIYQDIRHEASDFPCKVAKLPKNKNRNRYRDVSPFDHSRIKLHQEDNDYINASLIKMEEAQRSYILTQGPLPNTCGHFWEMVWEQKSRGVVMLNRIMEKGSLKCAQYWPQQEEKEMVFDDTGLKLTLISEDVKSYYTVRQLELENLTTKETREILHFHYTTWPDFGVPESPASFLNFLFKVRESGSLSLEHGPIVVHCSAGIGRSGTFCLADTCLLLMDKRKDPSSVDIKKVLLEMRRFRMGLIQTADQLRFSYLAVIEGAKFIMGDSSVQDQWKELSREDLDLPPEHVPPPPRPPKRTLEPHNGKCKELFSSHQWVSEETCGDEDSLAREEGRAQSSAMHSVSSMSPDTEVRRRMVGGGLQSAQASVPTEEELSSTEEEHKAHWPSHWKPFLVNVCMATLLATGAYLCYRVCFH
# Protocol: as §1, with “FIG. 30. […] 12-week” for “12-week”, “Ptpn1^fl/fl” for “Ptpn2^fl/fl”, “μg/ml,” for “ug/ml,”, “c-d)” for “b-c)”
# [3] = test system: PTP1B and TCPTP in the arcuate nucleus of the hypothalamus; assay: Celastrol i.p. for 10 days in high fat fed Ptpn1fl/fl: Ptpn2fl/fl mice, rAAV-Cre-eGFP vs rAAV-eGFP in ARC; assay type: in vivo, mouse; details: mice lacking PTP1B and TCPTP in the ARC; 20 μg/ml i.p., 10 consecutive days
# Protocol: FIG. 28 The ability of celastrol to promote weight loss in obese mice is abrogated in mice lacking PTP1B and TCPTP in the arcuate nucleus of the hypothalamus. 12-week high fat fed Ptpn1^fl/fl: Ptpn2^fl/fl male mice were bilateral injected with rAAV-eGFP or rAAV-Cre-eGFP into the arcuate nucleus of the hypothalamus (ARC). Two-week post AAV administration mice received Celastrol (20 μg/ml, i.p.) for 10 consecutive days and effects on a) Body weights, b) food intake, c-d) adiposity and lean mass (EchoMRI) was determined
structure (smiles),measurement,setting,value
CC1=C(O)C(=O)C=C2C1=CC=C1[C@@]2(C)CC[C@@]2(C)[C@@H]3C[C@](C)(C(=O)O)CC[C@]3(C)CC[C@]12C [celastrol],ability to promote weight loss in obese mice,[1],partially attenuated
same,ability to promote weight loss in obese mice,[2],partially attenuated
same,ability to promote weight loss in obese mice,[3],abrogated
